# Laboratory results: patent US11046686B2, “Thiadiazole IRAK4 compounds” (Gilead Sciences, Inc., priority 2018, dated 2021)
# System: TNFα
# Test: IRAK4 Monocyte TNFα Cell Based Assay
# Design: species or system human
# Details: Homo sapiens, Monocyte, human monocytes, LPS stimulated; compounds 1-32; read-out: EC50 TNF
# Procedure: IRAK4 Monocyte TNFα Cell Based Assay Procedure:
# The cell suspension was then plated at a density of 5,000 cells/well onto black 384 well Greiner clear bottom plates. Plates were pre-spotted with test compounds and serially diluted in DMSO where 40 nL/well were delivered using the Echo 550 acoustic liquid dispenser (Labcyte®) for a final DMSO concentration of 0.1%. Plated cells were treated with compound for 1 hour at 37° C. Cells were then stimulated with 50 pg/ml of LPS (Sigma) excluding outside columns of plate used for unstimulated cell control wells. Cells were incubated for an additional 4 hours at 37° C. Cells were then spun out of the media and 5 μl of sample were taken and analyzed for total TNFα content using the TR-FRET Human TNFα detection system (CisBio). This system utilizes two labeled antibodies (cryptate and XL665) that bind to two different epitopes of the TNFα molecule and produce FRET signal proportional to the concentration of TNFα in the sample. Detection antibodies are mixed 50:50 and 5 μL were dispensed into each well. Plates were covered with clear seals and incubated at room temp overnight. […] Percent of control was calculated as follows: % Control=100×(Ratiosample−Ratio0% stimulation)/(Ratio100% Stimulation−Ratio0% Stimulation) where unstimulated cells (0% stimulation) were the negative control and stimulated cells (100% stimulation) were used as the positive control.
row,EC50 [nM],Compound
1,14,"CC(=O)N[C@H]1CC[C@H](c2nnc(-c3cnc(-c4ccc5cc(C#N)cnn45)cc3NC(C)C)s2)CC1 [Example 24, N-((1r,4r)-4-(5-(6-(3-cyanopyrrolo[1,2-b]pyridazin-7-yl)-4-(isopropylamino)pyridin-3-yl)-1,3,4-thiadiazol-2-yl)cyclohexyl)acetamide]"

# Same assay, conditions: Homo sapiens, Monocyte, read-out: EC50 MONO TNF HTRF
row,Compound,EC50 [nM]
1,"CN1CCN(C(=O)N2C3CC2CN(c2nnc(-c4cnc(-c5ccc6cc(C#N)cnn56)cc4NC4(C)COC4)s2)C3)CC1 [Example 114, 7-(4-((3-methyloxetan-3-yl)amino)-5-(5-(6-(4-methylpiperazine-1-carbonyl)-3,6-diazabicyclo[3.1.1]heptan-3-yl)-1,3,4-thiadiazol-2-yl)pyridin-2-yl)pyrrolo[1,2-b]pyridazine-3-carbonitrile]",24.4
2,"CC(C)Nc1cc(-c2ccc3cc(C#N)cnn23)ncc1-c1nnc(N2CC3CC(C2)N3C(=O)N2CCN(C)CC2)s1 [Example 108, 7-(4-(isopropylamino)-5-(5-(6-(4-methylpiperazine-1-carbonyl)-3,6-diazabicyclo[3.1.1]heptan-3-yl)-1,3,4-thiadiazol-2-yl)pyridin-2-yl)pyrrolo[1,2-b]pyridazine-3-carbonitrile]",20.6

# Same assay, conditions: human monocytes; second part of Table 2, compounds 33-343; unit inferred; read-out: EC50 MONO TNF HTRF
row,EC50 [nM],Compound
1,6.4,"CC(=O)N[C@H]1CC[C@H](c2nnc(-c3cnc(-c4ccc5cc(C#N)cnn45)cc3N[C@H]3C[C@@](C)(O)C3)s2)CC1 [Compound 243, N-((1R,4r)-4-(5-(6-(3-cyanopyrrolo[1,2-b]pyridazin-7-yl)-4-(((1s,3S)-3-hydroxy-3-methylcyclobutyl)amino)pyridin-3-yl)-1,3,4-thiadiazol-2-yl)cyclohexyl)acetamide]"
2,39.1,"CC(=O)N[C@H]1[C@@H]2CCC[C@H]1CN(c1nnc(-c3cnc(-c4ccc5cc(C#N)cnn45)cc3NC(C)C)s1)C2 [Example 165, N-((1R,5S,9r)-3-(5-(6-(3-cyanopyrrolo[1,2-b]pyridazin-7-yl)-4-(isopropylamino)pyridin-3-yl)-1,3,4-thiadiazol-2-yl)-3-azabicyclo[3.3.1]nonan-9-yl)acetamide]"
3,2.4,"COC(=O)N[C@H]1CC[C@H](Nc2cc(-c3ccc4cc(C#N)cnn34)ncc2-c2nnc(N3C[C@H]4CC[C@@H](C3)[C@@H]4NC(C)=O)s2)CC1 [Example 54, methyl ((1R,4r)-4-((5-(5-((1R,5S,8S)-8-acetamido-3-azabicyclo[3.2.1]octan-3-yl)-1,3,4-thiadiazol-2-yl)-2-(3-cyanopyrrolo[1,2-b]pyridazin-7-yl)pyridin-4-yl)amino)cyclohexyl)carbamate]"
4,5.3,CC(=O)N(C)[C@@H]1[C@@H]2CC[C@H]1CN(c1nnc(-c3cnc(-c4ccc5cc(C#N)cnn45)cc3NC(C)C)s1)C2 [Example 300]
5,3.2,"CC(=O)N[C@H]1CC[C@H](c2nnc(-c3cnc(-c4ccc5cc(C#N)cnn45)cc3N[C@H]3CCC[C@@H](O)C3)s2)CC1 [Compound 245, N-((1S,4r)-4-(5-(6-(3-cyanopyrrolo[1,2-b]pyridazin-7-yl)-4-(((1S,3R)-3-hydroxycyclohexyl)amino)pyridin-3-yl)-1,3,4-thiadiazol-2-yl)cyclohexyl)acetamide]"
6,4.1,"CC1(Nc2cc(-c3ccc4cc(C#N)cnn34)ncc2-c2nnc(N3C[C@H]4CC[C@@H](C3)[C@@H]4NC(=O)CN=S(C)(C)=O)s2)COC1 [Example 109, N-((1R,5S,8s)-3-(5-(6-(3-cyanopyrrolo[1,2-b]pyridazin-7-yl)-4-((3-methyloxetan-3-yl)amino)pyridin-3-yl)-1,3,4-thiadiazol-2-yl)-3-azabicyclo[3.2.1]octan-8-yl)-2-((dimethyl(oxo)-16-sulfanylidene)amino)acetamide]"
7,10.9,"N#Cc1cnn2c(-c3cc(NC4CCOCC4)c(-c4nnc([C@H]5CC[C@H](NC(=O)C6CC6)CC5)s4)cn3)ccc2c1 [Example 156, N-((1r,4r)-4-(5-(6-(3-cyanopyrrolo[1,2-b]pyridazin-7-yl)-4-((tetrahydro-2H-pyran-4-yl)amino)pyridin-3-yl)-1,3,4-thiadiazol-2-yl)cyclohexyl)cyclopropanecarboxamide]"
8,4.9,"CC(=O)N[C@@H]1[C@@H]2CN(c3nnc(-c4cnc(-c5ccc6cc(C#N)cnn56)cc4NC(C)C)s3)C[C@@H]21 [Compound 239, N-((1R,5S,6r)-3-(5-(6-(3-cyanopyrrolo[1,2-b]pyridazin-7-yl)-4-(isopropylamino)pyridin-3-yl)-1,3,4-thiadiazol-2-yl)-3-azabicyclo[3.1.0]hexan-6-yl)acetamide]"
9,21.7,CC(C)Nc1cc(-c2ccc3cc(C#N)cnn23)ncc1-c1nnc(N2C[C@H]3CC[C@@H](C2)[C@@H]3NC(=O)C(C)(C)C(=O)O)s1 [Example 97]
10,1.2,"CC(C)(O)C(=O)N[C@@H]1[C@@H]2CC[C@H]1CN(c1nnc(-c3cnc(-c4ccc5cc(C#N)cnn45)cc3NC3CCOCC3)s1)C2 [Example 101, N-((1R,5S,8s)-3-(5-(6-(3-cyanopyrrolo[1,2-b]pyridazin-7-yl)-4-((tetrahydro-2H-pyran-4-yl)amino)pyridin-3-yl)-1,3,4-thiadiazol-2-yl)-3-azabicyclo[3.2.1]octan-8-yl)-2-hydroxy-2-methylpropanamide]"
11,4.9,"COC(=O)N[C@H]1CC[C@H](Nc2cc(-c3ccc4cc(C#N)cnn34)ncc2-c2nnc([C@H]3CC[C@H](NC(C)=O)CC3)s2)CC1 [Example 34, methyl ((1R,4r)-4-((5-(5-((1r,4R)-4-acetamidocyclohexyl)-1,3,4-thiadiazol-2-yl)-2-(3-cyanopyrrolo[1,2-b]pyridazin-7-yl)pyridin-4-yl)amino)cyclohexyl)carbamate]"

# More lines, now with the values behind:
row,Compound,EC50 [nM]
1,"CC(=O)N[C@]1(C)[C@@H]2CC[C@H]1CN(c1nnc(-c3cnc(-c4ccc5cc(C#N)cnn45)cc3N[C@H](C)C#N)s1)C2 [Example 157, N-((1R,5S,8S)-3-(5-(4-((R)-1-cyanoethypamino)-6-(3-cyanopyrrolo[1,2-b]pyridazin-7-yl)pyridin-3-yl)-1,3,4-thiadiazol-2-yl)-8-methyl-3-azabicyclo[3.2.1]octan-8-yl)acetamide]",1.8
2,"CC(=O)NC1CCC(F)(c2nnc(-c3cnc(-c4ccc5cc(C#N)cnn45)cc3NC3COC3)s2)CC1 (single isomer, unassigned) [Example 195, N-(4-(5-(6-(3-cyanopyrrolo[1,2-b]pyridazin-7-yl)-4-(oxetan-3-ylamino)pyridin-3-yl)-1,3,4-thiadiazol-2-yl)-4-fluorocyclohexy)acetamide]",334
3,"CC(=O)N[C@@H]1C[C@H]2C[C@@H]1CN2c1nnc(-c2cnc(-c3ccc4cc(C#N)cnn34)cc2NC(C)C)s1 [Example 73, N-((1R,4R,5R)-2-(5-(6-(3-cyanopyrrolo[1,2-]pyridazin-7-yl)-4-(isopropylamino)pyridin-3-yl)-1,3,4-thiadiazol-2-yl)-2-azabicyclo[2.2.1]heptan-5-yl)acetamide]",64.1
4,"CC(C)Nc1cc(-c2ccc3cc(C#N)cnn23)ncc1-c1nnc(N2CCC(O)(C(F)(F)F)CC2)s1 [Example 172, 7-(5-(5-(4-hydroxy-4-(trifluoromethyl)piperidin-l-yl)-1,3,4-thiadiazol-2-yl)-4-(isopropylamino)pyridin-2-yl)pyrrolo[1,2-b]pyridazine-3-carbonitrile]",34.4
5,"CC(C)Nc1cc(-c2ccc3cc(C#N)cnn23)ncc1-c1nnc(C(=O)N[C@H]2CC[C@H](O)CC2)s1 [Example 220, 5-(6-(3-cyanopyrrolo[1,2-b]pyridazin-7-yl)-4-(isopropylamino)pyridin-3-yl)-N-((1r,4r)-4-hydroxycyclohexyl)-1,3,4-thiadiazole-2-carboxamide]",131
6,CS(C)(=O)=NCC(=O)NC12CCC(c3nnc(-c4cnc(-c5ccc6cc(C#N)cnn56)cc4NC4CCOCC4)s3)(CC1)CC2 [Compound 338],2.7
7,CC(=O)NC[C@H]1CCCN1C(=O)c1nnc(-c2cnc(-c3ccc4cc(C#N)cnn34)cc2NC(C)C)s1 [Example 42],35.7
8,"CC(C)Nc1cc(-c2ccc3cc(C#N)cnn23)ncc1-c1nnc(N2CCC(C)(O)CC2)s1 [Example 287, 7-(5-(5-(4-hydroxy-4-methylpiperidin-l-yl)-1,3,4-thiadiazol-2-yl)-4-(isopropylamino)pyridin-2-yl)pyrrolo[1,2-b]pyridazine-3-carbonitrile]",9.8
9,CC(=O)N[C@H]1CCN(c2nnc(-c3cnc(-c4ccc5cc(C#N)cnn45)cc3NC(C)C)s2)C1 [Compound 331],81.4
10,"C[C@H](C#N)Nc1cc(-c2ccc3cc(C#N)cnn23)ncc1-c1nnc([C@H]2CC[C@H](NC(=O)C3CC3)CC2)s1 [Example 160, N-((1R,4r)-4-(5-(4-(((R)-1-cyanoethyl)amino)-6-(3-cyanopyrrolo[1,2-b]pyridazin-7-yl)pyridin-3-yl)-1,3,4-thiadiazol-2-yl)cyclohexyl)cyclopropanecarboxamide]",2.8
11,"CC(C)Nc1cc(-c2ccc3cc(C#N)cnn23)ncc1-c1nnc(C(=O)N[C@H]2CC[C@@H](O)CC2)s1 [Example 224, 5-(6-(3-cyanopyrrolo[1,2-b]pyridazin-7-yl)-4-(isopropylamino)pyridin-3-yl)-N-((1s,4s)-4-hydroxycyclohexyl)-1,3,4-thiadiazole-2-carboxamide]",4770
